From PubChem BioAssay AID1919009 (Molecular Pharmacology Branch, DTP, NCI, 2023)

Tested on: K24384-001-R-PDC complex spheroid growth
Assay: Anticancer human tumor K24384-001-R-PDC patient-derived pancreatic adenocarcinoma cell line growth inhibition [AhR]
Details: for IC50: curve of first compound; for viability, T/C: stronger effect = lower value
Summary of the method: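 Spheroids combined tumor cells with HUVEC endothelial cells and human MSCs as stroma. AhR antagonists were paired with standard or investigational drugs, each dosed in half-log steps down from near clinical Cmax, or from 10 microM where Cmax was unknown.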
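Wherever viability, T/C is given: percent of DMSO vehicle-treated spheroid viability set as 100%.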

- IC50 (second compound 0.1 µM): 8.69 nM
- IC50 (second compound 0.316 µM): 29.2 nM
- IC50 (second compound 1 µM): 8.68 nM
- IC50 (second compound 3.16 µM): 19.8 nM
- IC50 (second compound 10 µM): 68 nM
Compound: CCc1c2c(nc3ccc(O)cc13)-c1cc3c(c(=O)n1C2)COC(=O)[C@]3(O)CC + Cc1ccccc1N=Nc1ccc(NC(=O)c2ccnn2C)c(C)c1
- viability, T/C (second compound 0.1 µM, first compound 0.000949 µM): 74.2%
- viability, T/C (second compound 0.1 µM, first compound 0.003 µM): 72.8%
- viability, T/C (second compound 0.1 µM, first compound 0.00949 µM): 48.1%
- viability, T/C (second compound 0.1 µM, first compound 0.03 µM): 48.9%
- viability, T/C (second compound 0.1 µM, first compound 0.0949 µM): 49.8%
- viability, T/C (second compound 0.1 µM, first compound 0.3 µM): 36.7%
- viability, T/C (second compound 0.316 µM, first compound 0.000949 µM): 96.2%
- viability, T/C (second compound 0.316 µM, first compound 0.003 µM): 77.7%
- viability, T/C (second compound 0.316 µM, first compound 0.00949 µM): 58.1%
- viability, T/C (second compound 0.316 µM, first compound 0.03 µM): 51.6%
- viability, T/C (second compound 0.316 µM, first compound 0.0949 µM): 41.9%
- viability, T/C (second compound 0.316 µM, first compound 0.3 µM): 31.4%
- viability, T/C (second compound 1 µM, first compound 0.000949 µM): 77.4%
- viability, T/C (second compound 1 µM, first compound 0.003 µM): 100%
- viability, T/C (second compound 1 µM, first compound 0.00949 µM): 46.7%
- viability, T/C (second compound 1 µM, first compound 0.03 µM): 45.2%
- viability, T/C (second compound 1 µM, first compound 0.0949 µM): 47.6%
- viability, T/C (second compound 1 µM, first compound 0.3 µM): 30.8%
- viability, T/C (second compound 3.16 µM, first compound 0.000949 µM): 73.3%
- viability, T/C (second compound 3.16 µM, first compound 0.003 µM): 62%
- viability, T/C (second compound 3.16 µM, first compound 0.00949 µM): 55.6%
- viability, T/C (second compound 3.16 µM, first compound 0.03 µM): 46.1%
- viability, T/C (second compound 3.16 µM, first compound 0.0949 µM): 41.5%
- viability, T/C (second compound 3.16 µM, first compound 0.3 µM): 30%
- viability, T/C (second compound 10 µM, first compound 0.000949 µM): 94%
- viability, T/C (second compound 10 µM, first compound 0.003 µM): 82%
- viability, T/C (second compound 10 µM, first compound 0.00949 µM): 64.3%
- viability, T/C (second compound 10 µM, first compound 0.03 µM): 65.7%
- viability, T/C (second compound 10 µM, first compound 0.0949 µM): 48.6%
- viability, T/C (second compound 10 µM, first compound 0.3 µM): 29.3%
